Laboratory results taken from patent US20220323443A1, “COMBINATION THERAPY FOR CANCER TREATMENT” (TAKEDA PHARMACEUTICAL COMPANY LIMITED, priority 2019, published 2022).

Columns and labels:
DU-145 (Prostate) = assay: In vivo combination study, Cell Derived Xenograft; set-up: species or system mouse; conditions: DU-145 (165 mm^3); Compound 1 60 mg/kg once daily Day 1-21; drug 10 mg/kg intravenously once weekly Days 1,8,15
Method: (§1) To investigate in vivo antitumor activity of Compound 1 in combination with other agents, tests using Cell Derived Xenograft (CDX), Patient Derived Xenograft (PDX) and Syngeneic mouse tumor isograft model were conducted. Cells or Patient Derived Tumors were inoculated by one method of the following two methods (Method A and B) as shown Table 7.
Method A; Cells were maintained in either immune deficient nude mice or immune competent mice by subcutaneous inoculation of tumor cells at various concentrations into respected mice. Method B: Patient Derived Tumor s were maintained in nude mice by subcutaneous inoculation of tumor pieces (approx. 2×2×2 mm) into nude mice. […]
Tumor size was measured by caliper and tumor volume was estimated using the equation V=(LW^2)/2, where L and W are tumor length and width, respectively and reported in cubic millimeters. […]
For synergy analyses, the observed differences in the log tumor values were used to calculate AUC values for each animal. […] The AUC for the control, or vehicle, group was calculated using the predicted values from the pairwise models described above. […]
where Ak and Bk are the k^th animal in the individual treatment groups and ABk is the k^th animal in combination treatment group. […] The standard error of the synergy score was calculated as the square root of the sum of squared standard errors across groups A, B, and AB. […]

HCT116 cancer cells = assay: In vitro combination study with Compound 1, Cell Titer-Glo (ATP) cell viability, 72 h; type: cell-based; conditions: Table 5 drug combined with Compound 1; 72 h;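 note: combination call from 10×10 dose matrices in duplicate, graded by synergy, with percent activity per well relative to DMSO vehicle controls on the same plate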
SW620 cancer cells = assay: as above; type: cell-based; conditions: Table 5 drug combined with Compound 1; 72 h;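 note: Ten-by-ten dose matrices of both drugs in 384-well plates, luminescent ATP read-out, synergy evaluated against single-agent and DMSO vehicle controls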
[1] = tested on: PHTXM-79Es human primary esophagus cancer xenografts; assay: In vivo combination study, Patient Derived Xenograft; set-up: species or system mouse; key to Result (combination with Compound 1, tumor growth): synergistic if the synergy score was less than 0; additive if the synergy score wasn't statistically different from 0; If the synergy score was greater than zero, but the mean AUC for the combination was lower than the lowest mean AUC among the two single agent treatments, then the combination was sub-additive; If the synergy score was greater than zero, and the mean AUC for the combination was greater than the mean AUC for at least one of the single agent treatments, then the combination was antagonistic; conditions: for Result (combination with Compound 1, tumor growth): PHTX-79Es (135 mm^3) FIG. 5A, drug 10 mg/kg intravenously once weekly Days 1,8,15
Method: as §1
(§2) Method A; Cells were maintained in either immune deficient nude mice or immune competent mice by subcutaneous inoculation of tumor cells at various concentrations into respected mice. Method B: Patient Derived Tumor s were maintained in nude mice by subcutaneous inoculation of tumor pieces (approx. 2×2×2 mm) into nude mice. Mice with tumor size of approximately 50 mm^3 (e.g., 40-75 mm^3) for syngeneic mouse studies or 200 mm^3 (e.g., 110-270 mm^3) for xenograft studies were randomly assigned to dose groups on the day (Day 0) before start date of dosing.
(§3) Compound 1 (crystalline form I) was suspended in 0.5 w/v % methylcellulose and administered orally to mice. Antibodies which administered in the experiment were described in Table 8.
(§4) Tumor size was measured by caliper and tumor volume was estimated using the equation V=(LW^2)/2, where L and W are tumor length and width, respectively and reported in cubic millimeters.
(§5) These values were compared across treatment groups to assess whether the differences in the trends over time were statistically significant. To compare pairs of treatment groups, the following mixed-effects linear regression model was fit to the data using the maximum likelihood method:
(§6) For synergy analyses, the observed differences in the log tumor values were used to calculate AUC values for each animal. In instances when an animal in a treatment group was removed from the study, the last observed tumor value was carried forward through all subsequent time points. The AUC for the control, or vehicle, group was calculated using the predicted values from the pairwise models described above. We defined a measure of synergy as follows:
(§7) where Ak and Bk are the k^th animal in the individual treatment groups and ABk is the k^th animal in combination treatment group. AUCcd is the model-predicted AUC for the control group and was treated as a constant with no variability. The standard error of the synergy score was calculated as the square root of the sum of squared standard errors across groups A, B, and AB. The degrees of freedom were estimated using the Welch-Satterthwaite equation. A hypothesis test was performed to determine if the synergy score differed from 0. P values were calculated by dividing the synergy score by its standard error and tested against a t-distribution (two-tailed) with the above-calculated degrees of freedom.
(§8) The effect was classified into four different categories. It was considered synergistic if the synergy score was less than 0 and additive if the synergy score wasn't statistically different from 0. If the synergy score was greater than zero, but the mean AUC for the combination was lower than the lowest mean AUC among the two single agent treatments, then the combination was sub-additive. If the synergy score was greater than zero, and the mean AUC for the combination was greater than the mean AUC for at least one of the single agent treatments, then the combination was antagonistic.

COLO205 cancer cells = assay: In vitro combination study with Compound 1, Cell Titer-Glo (ATP) cell viability, 72 h; type: cell-based, human; conditions: Table 5 drug combined with Compound 1; 72 h;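 note: Ten-by-ten dose matrices of both agents in duplicate plus single-agent dilutions, luminescent ATP read-out, percent activity per well relative to DMSO vehicle wells, synergy call from these matrices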
H460 cancer cells = assay: as above; type: cell-based; conditions: Table 5 drug combined with Compound 1; 72 h;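 note: Ten-by-ten dose matrices of both drugs alongside single-agent dilutions, luminescence read 72 hours after compound addition, percent activity per well versus vehicle (DMSO) plate controls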
A549 cancer cells = assay: as above; type: cell-based; conditions: Table 5 drug combined with Compound 1; 72 h;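 note: Ten-by-ten dose matrices of the two agents in duplicate, compounds added 16 h post-plating, activity relative to DMSO vehicle wells, call reflects synergy evaluation from luminescence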
[2] = tested on: PHTXM-35Es human primary esophagus cancer xenografts; assay: In vivo combination study, Patient Derived Xenograft; set-up: species or system mouse; conditions: for Result (combination with Compound 1, tumor growth): drug 10 mg/kg intravenously once weekly Days 1,8,15
Method: as §1, §2, §3, §4, §5, §6, §7, §8

PHTXM-90Es (Esophagus) = assay: as above; set-up: species or system mouse; conditions: PHTXM-90Es (220 mm^3), drug 10 mg/kg intravenously once weekly Days 1,8,15
Method: as §1, §2, §3, §4, §5, §6, §7, §8

[3] = Compound 1 40 mg/kg once daily Day 1-21
[4] = Compound 1 60 mg/kg once daily Day 1-21

`CC(=O)O[C@@]12CO[C@@H]1C[C@H](O)[C@@]1(C)C(=O)[C@H](O)C3=C(C)[C@@H](OC(=O)[C@H](O)[C@@H](NC(=O)OC(C)(C)C)c4ccccc4)C[C@@](O)([C@@H](OC(=O)c4ccccc4)[C@H]21)C3(C)C` [Docetaxel] was tested, and the “Result (combination with Compound 1, tumor growth)” value (shortened to “Result”) (DU-145 (Prostate)) was “Additive”, the “Call, anti-proliferative effect of combination with Compound 1, HCT116” value (HCT116 cancer cells) was “Additivity (0.7 to 1.3)” and the “Call, anti-proliferative effect of combination with Compound 1, SW620” value (SW620 cancer cells) was “Synergy (0 to 0.7)”. For the same compound, the “Result” value [1, 3] was “Synergistic”, the “Result” value [1, 4] was “additive” and the antitumor activity ([1]; combined with Compound 1, PHTXM-79Es human primary esophagus cancer xenografts, FIG. 5A) was “strong antitumor activity compared to either single treatment alone”. For the same compound, the “Call, anti-proliferative effect of combination with Compound 1, COLO205” value (COLO205 cancer cells) was “Additivity (0.7 to 1.3)”, the “Call, anti-proliferative effect of combination with Compound 1, H460” value (H460 cancer cells) was “Additivity (0.7 to 1.3)” and the “Call, anti-proliferative effect of combination with Compound 1, A549” value (A549 cancer cells) was “Subadditivity (1.3 to 2)”. The “Result” value ([2]; PHTXM-35Es (150 mm^3) FIG. 4B, Compound 1 40 mg/kg once daily Day 1-21) was “Synergistic”, the “Result” value ([2]; PHTXM-35Es (150 mm^3) FIG. 4B, Compound 1 60 mg/kg once daily Day 1-21) was “Additive” and the “Result” value ([2]; PHTXM-35Es (190 mm^3), Compound 1 40 mg/kg once daily Day 1-21) was “Synergistic”. For the same compound, the “Result” value ([2]; PHTXM-35Es (190 mm^3), Compound 1 60 mg/kg once daily Day 1-21) was “Synergistic”, the antitumor activity ([2]; combined with Compound 1, PHTXM-35Es human primary esophagus cancer xenografts, FIG. 4B) was “strong antitumor activity compared to either single treatment alone” and the “Result” value (PHTXM-90Es (Esophagus); [3]) was “Additive”. The “Result” value (PHTXM-90Es (Esophagus); [4]) was “Additive”.
